Laboratory results taken from US6627732B1, “Glutathione derivatives and their dosage forms” (Teijin Limited, priority 1998, dated 2003).

How the values were obtained:
Stability in rat plasma = type: in vitro ADME; settings: for Half life in rat plasma: heparinized plasma, diluted as needed with BSA/D-PBS, 250-323 μg/ml
Description: (§1) Rat, rabbit, and human plasma
(§2) Heparinized plasma: 30 to 40 parts
(rat plasma was diluted, as needed, with 30 mg-BSA/ml-D-PBS (pH 7.4) for use)

[1] = Stability in rabbit plasma; settings: rabbit, plasma
Description: (1) Bovine serum albumin (hereinafter referred to as BSA), Dulbecco's phosphate buffered saline (hereinafter referred to as D-PBS), swine liver esterase, and rabbit liver esterase were purchased from Sigma, 6-week old male SD rats were purchased from Nippon SLC, and 12-week old or older male Japanese white rabbits were purchased from Ichikawaya. On the day of the incubation experiment described below, blood was drawn from the animals in the presence of heparin, and plasma was separated therefrom for use. Human plasma was obtained from normal healthy males after obtaining their consent.
(2) The glutathione derivatives described in the Examples and Comparative Examples of the present invention were incubated for a fixed time in an enzyme solution having the following composition. Acetonitrile was added to the reaction mixture to inactivate the enzyme thereby to stop the reaction. The concentration of the glutathione derivatives in the deproteinized supernatant was measured by HPLC. For each time point of the esterase enzyme experiment, the mean values from two measurement or more were determined, and for the rats and rabbits the mean values of plasma samples from three individuals were determined. For some of the experiment data, changes with time of percentages relative to initial concentration of the glutathione derivative are shown in FIGS. 2 to 4.
as §1, §2
10 mg-glutathione derivative/ml-ethanol: one part (the final concentration in the reaction mixture is 250-323 μg/ml)

[2] = Stability in human plasma; type: in vitro ADME; settings: heparinized plasma, 250-323 μg/ml
From the text: as §1, §2

[3] = system: human leukemia cell HL-60; assay: HL-60 cell differentiation induction, NBT reducing activity (Example 20); type: cell-based; settings: 4 days
Description: Using the differentiation induction effect on the granulocytes or monocytes/macrophages obtained by culturing the human leukemia cell HL-60 in the presence of 9-cys-retinoic acid (9-cis-RA) or activated vitamin D3 (1α, 25(OH)2D3), and in the coexistence of the glutathione derivatives of Examples and the Comparative Examples of the present invention, the growth-promotion activity was tested.
(1) HL-60 cells used were purchased from the cell bank (Japanese Cancer Research Resource Bank, Cell No. JCRBOO85). In accordance with a standard method, the lyophilized cell stocks that were thawed before the start of the experiment and subcultured were used.
Subculturing was carried out by centrifuging (1500 rpm, 5 minutes) the cells in suspension culture and recovering and by diluting it in a fresh culture liquid at a concentration of about 1/100 (1 to 2×10^4 cells/ml). As the culture liquid, an RPMI 1640 medium containing 10% fetal bovine serum was used.
(2) The cells subcultured in (1) were recovered by centrifugation (1500 rpm, 5 minutes), and were dispersed in the culture liquid at 2×10^4 cells/ml, which were plated on a 24-well culture plate at 1 ml/well. To this system were added the glutathione derivatives of Example 4, Example 11, Comparative Example 1 and Comparative Example 2 and a differentiation induction substance (9-cis-RA or 1α, 25(OH)2D3). Thus, 1 μl per well each of an ethanol solution of the differentiation induction substances 9-cis-RA and 1α, 25(OH)2D3 were added at 5×10^−6 M and 2×10^−6 M, respectively. Then, 1 μl per well each of ethanol solutions of the glutathione derivatives at 1×10^−4 M to 1×10^−2 M was added. As the solvent treatment for the control, 1 μl of ethanol per well was added in stead of the glutathione derivative, and as the single treatment of glutathione derivatives, 1 μl of ethanol per well was added in stead of the differentiation induction substance. After culturing at 37° C. and 5% CO2 for 4 days, the cells were recovered by centrifugation (1500 rpm, 5 minutes).
(3) The measurement of a nitroblue tetrazolium (NBT) reducing activity which is often used for the evaluation of differentiation induction effects on monocytes/macrophages or granulocytic cells was carried out according to the following procedure. Thus, the cells recovered by centrifugation in (2) were suspended in a fresh culture medium, and then NBT was added thereto to […] and 12-O-tetradecanoyl phorbol-13-acetate to 100 nM. After incubating at 37° C. for 25 minutes, cytospin samples were prepared. After air drying, the cells were subjected to Kernechtrot stain, and 500 cells per sample were examined under alight microscope to determine the ratio of the NBT reduction activity-positive cells.
(4) The result of the experiment in which glutathione derivatives at 10^−7 to 10^−5 M were treated together with a differentiation induction substances is shown in Table 4. For a single treatment of each glutathione derivative up to 10^−5 M, no increases in the NBT reducing activity was observed. In a combined treatment of a glutathione derivative and a differentiation induction substance, an enhanced ratio of the NBT reduction activity-positive cells relative to the single treatment with a differentiation induction substance was observed depending on the concentration of the glutathione derivative. There were no major differences observed in the strength of effects between the glutathione derivatives of Examples 4 and 11 and Comparative Examples 1, and 2.

[4] = compound 10^−5 M, Solvent control (EtOH), no differentiation induction substance
[5] = compound 10^−5 M, with 1α,25(OH)2D3 (2 × 10^−9 M)
[6] = compound 10^−5 M, with 9-cis-RA (5 × 10^−9 M)
[7] = compound 10^−6 M, Solvent control (EtOH), no differentiation induction substance
[8] = compound 10^−6 M, with 1α,25(OH)2D3 (2 × 10^−9 M)
[9] = compound 10^−6 M, with 9-cis-RA (5 × 10^−9 M)
[10] = compound 10^−7 M, Solvent control (EtOH), no differentiation induction substance
[11] = compound 10^−7 M, with 1α,25(OH)2D3 (2 × 10^−9 M)
[12] = compound 10^−7 M, with 9-cis-RA (5 × 10^−9 M)

| Stability in biological sample solutions such as rat blood (Stability in rat plasma) | Half life in rat plasma (Stability in rat plasma) [h] | Half life in the plasma of experimental animals (Stability in rat plasma; mice and rats) | Half life in rabbit plasma [1] [h] | Half life in human plasma [2] [h] | SMILES | Ratio of NBT reduction activity-positive cells [3, 4] [%] | Ratio of NBT reduction activity-positive cells [3, 5] [%] | Ratio of NBT reduction activity-positive cells [3, 6] [%] | Ratio of NBT reduction activity-positive cells [3, 7] [%] | Ratio of NBT reduction activity-positive cells [3, 8] [%] | Ratio of NBT reduction activity-positive cells [3, 9] [%] | Ratio of NBT reduction activity-positive cells [3, 10] [%] | Ratio of NBT reduction activity-positive cells [3, 11] [%] | Ratio of NBT reduction activity-positive cells [3, 12] [%] |
| --- | --- | --- | --- | --- | --- | --- | --- | --- | --- | --- | --- | --- | --- | --- |
| very unstable | 0.00217 | extremely short half life | 6.53 | 10.7 | CCOC(=O)[C@@H](N)CCC(=O)N[C@@H](CSCc1ccccc1)C(=O)N[C@@H](C(=O)OCC)c1ccccc1.Cl [Comparative Example 1, Glu(Cys(Bzl)-D-Phg-O(Et))-O(Et)hydrochloride, reference compound] | 0.4 | 13.0 | 18.8 | 0.2 | 7.6 | 10.1 | 0.2 | 5.4 | 6.3 |
|  | 0.0035 |  | 3.97 | 10.3 | CCCCCCCCOC(=O)[C@H](NC(=O)[C@H](CSCc1ccccc1)NC(=O)CC[C@H](N)C(=O)OCC)c1ccccc1.Cl [Comparative Example 2, Glu(Cys(Bzl)-D-Phg-O(Octyl))-O(Et)hydrochloride, reference compound] | 0.6 | 18.2 | 33.2 | 0.4 | 9.3 | 15.2 | 0.2 | 4.6 | 7.4 |
|  | 2.57 |  | 22.05 | 184.77 | CCCCCCCCCCCCCCCCOC(=O)[C@@H](N)CCC(=O)N[C@@H](CSCc1ccccc1)C(=O)N[C@@H](C(=O)OCC)c1ccccc1.Cl [Example 4, Glu(Cys(Bzl)-D-Phg-OEt)-O(Hexadecyl)hydrochloride] | 0.2 | 31.3 | 18.0 | 0.2 | 10.3 | 10.4 | 0.2 | 5.7 | 6.7 |
